Experimental data taken from US20260022142A1, “MACROCYCLIC IMMUNOMODULATORS” (Bristol-Myers Squibb Company, priority 2022, published 2026).
Bridge positions count the residues as written; N and C are the ends. Square brackets hold non-standard residues; d marks the D form. Peptide text beside a SMILES is read from it. * marks the point of attachment. ξ: configuration not given here. Bip = N[C@@H](Cc1ccc(-c2ccccc2)cc1)C(=O)O; Phe(4-CN) = N#Cc1ccc(C[C@H](N)C(=O)O)cc1; Phe(3-Me) = Cc1cccc(C[C@H](N)C(=O)O)c1; NH(CH2)12COOH = O=C(O)CCCCCCCCCCCCN*; Val(3-OH) = CC(C)(O)[C@H](N)C(=O)O; hArg = N=C(N)NCCCC[C@H](N)C(=O)O; Cha = N[C@@H](CC1CCCCC1)C(=O)O; Thr(3ξ) = CC(O)[C@H](N)C(=O)O; Carboxymethyl = O=C(O)C*; Orn = NCCC[C@H](N)C(=O)O; Aun = NCCCCCCCCCCC(=O)O; Dab = NCC[C@H](N)C(=O)O; Dap = NC[C@H](N)C(=O)O; AEEA = NCCOCCOCC(=O)O

molecular target: T1, PD-1/PD-L1 interaction (PE-labeled human PD-L1-Ig binding to Jurkat cell line over-expressing human PD-1) (Homo sapiens, UniProt Q15116); experiment: Jurkat-PD-1 Cell Binding High-Content Screening Assay (CBA); format: cell-based; details: Jurkat cell line over-expressing human PD-1; PE-labeled PD-L1-Ig 20 nM final; read-out: Jurkat hPD1-PDL1 IC50
T1 construct: expressed in transfected cells; host or cells: Jurkat
In short: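 Jurkat-hPD-1 cells, DMEM/10% FCS; cpd 2 h 37° C; PE-PD-L1-Ig 20 nM final, 1 h; 4% PFA fix + Hoechst 33342, 3× dPBS wash; high-content imaging read-out.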

T1 sequence (Q15116 25-288): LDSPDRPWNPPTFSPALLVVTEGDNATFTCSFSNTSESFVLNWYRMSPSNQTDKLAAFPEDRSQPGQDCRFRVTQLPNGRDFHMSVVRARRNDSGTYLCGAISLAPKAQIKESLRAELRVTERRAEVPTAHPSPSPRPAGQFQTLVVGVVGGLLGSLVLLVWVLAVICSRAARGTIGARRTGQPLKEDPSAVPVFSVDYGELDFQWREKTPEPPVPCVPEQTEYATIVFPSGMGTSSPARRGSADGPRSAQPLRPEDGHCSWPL

SMILES | IC50 [nM]
Cc1cccc(C[C@@H]2NC(=O)[C@H](CC(=O)O)NC(=O)[C@H](Cc3ccc(OCC(=O)O)cc3)NC(=O)[C@H](CN)NC(=O)CSC[C@@H](C(=O)N[C@@H](C)C(=O)N[C@@H](CCCN)C(=O)NCC(=O)NCCCCCCCCCCC(=O)O)NC(=O)[C@H]([C@@H](C)O)NC(=O)[C@H](C(C)C)NC(=O)[C@H](CC3CCCCC3)NC(=O)[C@H](CCN)NC(=O)[C@@H](CC(C)C)NC(=O)[C@H](CCCN)NC(=O)[C@H](CCCNC(=N)N)NC(=O)[C@H](Cc3ccc(-c4ccccc4)cc3)NC(=O)[C@H](C(C)C)NC2=O)c1 [Compound 2007] ({CH2CO}-[Dap]Y(Carboxymethyl)D[Phe(3-Me)]V[Bip]R[Orn][dL][Dab][Cha]VTCA[Orn]G[Aun]-OH; thioether N-14) | 13.7
CC(C)C[C@H]1NC(=O)[C@H](CCCN)NC(=O)[C@H](C(C)C)NC(=O)[C@H](Cc2ccc(-c3ccccc3)cc2)NC(=O)[C@H](C(C)C)NC(=O)[C@H](Cc2c[nH]c3ccccc23)NC(=O)[C@H](CC(=O)O)NC(=O)[C@H](Cc2ccc(OCC(=O)O)cc2)NC(=O)[C@H](CN)NC(=O)CSC[C@@H](C(=O)N[C@@H](CCN)C(=O)NCCOCCOCC(=O)NCCCCCCCCCCC(=O)O)NC(=O)[C@H](CCCCN)NC(=O)[C@H](C(C)C)NC(=O)[C@H](CC2CCCCC2)NC(=O)[C@H](CCN)NC1=O [Compound 2549] ({CH2CO}-[Dap]Y(Carboxymethyl)DWV[Bip]V[Orn][dL][Dab][Cha]VKC[Dab][AEEA][Aun]-OH; thioether N-14) | 9.4
Cc1cccc(C[C@@H]2NC(=O)[C@H](CC(=O)O)NC(=O)[C@H](Cc3ccc(OCC(=O)O)cc3)NC(=O)[C@H](C(C)O)NC(=O)CSC[C@@H](C(=O)NCCOCCOCC(=O)NCCCCCCCCCCC(=O)O)NC(=O)[C@H](Cc3cnc[nH]3)NC(=O)[C@H](C(C)O)NC(=O)[C@H](CC3CCCCC3)NC(=O)[C@H](CCN)NC(=O)[C@@H](CC(C)C)NC(=O)[C@H](CCCN)NC(=O)[C@H](C(C)C)NC(=O)[C@H](Cc3ccc(-c4ccccc4)cc3)NC(=O)[C@H](C(C)C)NC2=O)c1 (stereo partly drawn) [Compound 3703] ({CH2CO}-[Thr(3ξ)]Y(Carboxymethyl)D[Phe(3-Me)]V[Bip]V[Orn][dL][Dab][Cha][Thr(3ξ)]HC[AEEA][Aun]-OH; thioether N-14) | 23.4
Cc1cccc(C[C@@H]2NC(=O)[C@H](CC(=O)O)NC(=O)[C@H](Cc3ccc(OCC(=O)O)cc3)NC(=O)[C@H](CCCNC(=N)N)NC(=O)CSC[C@@H](C(=O)N[C@@H](CCN)C(=O)NCCCCCCCCCCC(=O)O)NC(=O)[C@H](CCC(=O)O)NC(=O)[C@H](C(C)C)NC(=O)[C@H](CC3CCCCC3)NC(=O)[C@H](CCN)NC(=O)[C@@H](CC(C)C)NC(=O)[C@H](CCCN)NC(=O)[C@H](Cc3ccc(O)cc3)NC(=O)[C@H](Cc3ccc(-c4ccccc4)cc3)NC(=O)[C@H](Cc3ccc(O)cc3)NC2=O)c1 [Compound 3381] ({CH2CO}-RY(Carboxymethyl)D[Phe(3-Me)]Y[Bip]Y[Orn][dL][Dab][Cha]VEC[Dab][Aun]-OH; thioether N-14) | 8.9

More lines, in order of falling IC50, values ahead:

IC50 [nM] | SMILES
38.4 | Cc1cccc(C[C@@H]2NC(=O)[C@H](CC(=O)O)NC(=O)[C@H](Cc3ccc(OCC(=O)O)cc3)NC(=O)[C@H](CCCNC(=N)N)NC(=O)CSC[C@@H](C(=O)NCCOCCOCC(=O)NCCCCCCCCCCC(=O)O)NC(=O)[C@H](C(C)O)NC(=O)[C@H](C(C)C)NC(=O)[C@H](CC3CCCCC3)NC(=O)[C@H](CCN)NC(=O)[C@@H](CC(C)C)NC(=O)[C@H](CCCN)NC(=O)[C@H](Cc3ccc(OCC(=O)O)cc3)NC(=O)[C@H](Cc3ccc(-c4ccccc4)cc3)NC(=O)[C@H](Cc3ccc(OCC(=O)O)cc3)NC2=O)c1 (stereo partly drawn) [Compound 3477] ({CH2CO}-RY(Carboxymethyl)D[Phe(3-Me)]Y(Carboxymethyl)[Bip]Y(Carboxymethyl)[Orn][dL][Dab][Cha]V[Thr(3ξ)]C[AEEA][Aun]-OH; thioether N-14)
16 | Cc1cccc(C[C@@H]2NC(=O)[C@H](CC(=O)O)NC(=O)[C@H](Cc3ccc(OCC(=O)O)cc3)NC(=O)[C@H]([C@@H](C)O)NC(=O)CSC[C@@H](C(=O)N[C@@H](CCN)C(=O)NCCOCCOCC(=O)NCCCCCCCCCCCCC(=O)O)NC(=O)[C@H](CO)NC(=O)[C@H](C(C)(C)O)NC(=O)[C@H](CC3CCCCC3)NC(=O)[C@H](CCN)NC(=O)[C@@H](CC(C)C)NC(=O)[C@H](CCCN)NC(=O)[C@H](Cc3ccc(OCC(=O)O)cc3)NC(=O)[C@H](Cc3ccc(-c4ccccc4)cc3)NC(=O)[C@H](Cc3ccc(OCC(=O)O)cc3)NC2=O)c1 [Compound 2249] ({CH2CO}-TY(Carboxymethyl)D[Phe(3-Me)]Y(Carboxymethyl)[Bip]Y(Carboxymethyl)[Orn][dL][Dab][Cha][Val(3-OH)]SC[Dab][AEEA]-{NH(CH2)12COOH}; thioether N-14)
13.2 | CC(C)C[C@H]1NC(=O)[C@H](CCN)NC(=O)[C@H](C(C)C)NC(=O)[C@H](Cc2ccc(-c3ccccc3)cc2)NC(=O)[C@H](C(C)C)NC(=O)[C@H](Cc2c[nH]c3ccccc23)NC(=O)[C@H](CC(=O)O)NC(=O)[C@H](Cc2ccc(OCC(=O)O)cc2)NC(=O)[C@H](CCCCNC(=N)N)NC(=O)CSC[C@@H](C(=O)N[C@@H](CCN)C(=O)NCCCCCCCCCCC(=O)O)NC(=O)[C@H](CCCCN)NC(=O)[C@H](C(C)C)NC(=O)[C@H](CC2CCCCC2)NC(=O)[C@H](CCN)NC1=O [Compound 3255] ({CH2CO}-[hArg]Y(Carboxymethyl)DWV[Bip]V[Dab][dL][Dab][Cha]VKC[Dab][Aun]-OH; thioether N-14)
7.6 | COC[C@@H]1NC(=O)CSC[C@@H](C(=O)N[C@@H](CCN)C(=O)NCCCCCCCCCCC(=O)O)NC(=O)[C@H](CO)NC(=O)[C@H](C(C)(C)O)NC(=O)[C@H](CC2CCCCC2)NC(=O)[C@H](CCN)NC(=O)[C@@H](CC(C)C)NC(=O)[C@H](CCCN)NC(=O)[C@H](Cc2ccc(OCC(=O)O)cc2)NC(=O)[C@H](Cc2ccc(-c3ccccc3)cc2)NC(=O)[C@H](Cc2ccc(OCC(=O)O)cc2)NC(=O)[C@H](Cc2cccc(C)c2)NC(=O)[C@H](CC(=O)O)NC(=O)[C@H](Cc2ccc(OCC(=O)O)cc2)NC1=O [Compound 2207] ({CH2CO}-S(Me)Y(Carboxymethyl)D[Phe(3-Me)]Y(Carboxymethyl)[Bip]Y(Carboxymethyl)[Orn][dL][Dab][Cha][Val(3-OH)]SC[Dab][Aun]-OH; thioether N-14)
6.3 | Cc1cccc(C[C@@H]2NC(=O)[C@H](CC(=O)O)NC(=O)[C@H](Cc3ccc(C#N)cc3)NC(=O)[C@H](C(C)O)NC(=O)CSC[C@@H](C(=O)N[C@@H](CCN)C(=O)NCCOCCOCC(=O)NCCOCCOCC(=O)NCCCCCCCCCCC(=O)O)NC(=O)[C@H](Cc3cnc[nH]3)NC(=O)[C@H](C(C)O)NC(=O)[C@H](CC3CCCCC3)NC(=O)[C@H](CCN)NC(=O)[C@@H](CC(C)C)NC(=O)[C@H](CCCN)NC(=O)[C@H](Cc3ccc(OCC(=O)O)cc3)NC(=O)[C@H](Cc3ccc(-c4ccccc4)cc3)NC(=O)[C@H](Cc3ccc(OCC(=O)O)cc3)NC2=O)c1 (stereo partly drawn) [Compound 3774] ({CH2CO}-[Thr(3ξ)][Phe(4-CN)]D[Phe(3-Me)]Y(Carboxymethyl)[Bip]Y(Carboxymethyl)[Orn][dL][Dab][Cha][Thr(3ξ)]HC[Dab][AEEA][AEEA][Aun]-OH; thioether N-14)
